From patent US12366572B2, “Activation of bioluminescence by structural complementation” (Promega Corporation, priority 2013, dated 2025)

What follows are compounds tested against NLpoly 11S (Oplophorus gracilirostris, UniProt Q9GV45, A31E/A60N/A81I/D135N/F58L/F95D/G184S/G42A/G62A/G78A/G94A/G98A/H120P/I103V/I117V/I134L/K70R/L176M/L26M/L54V/L73R/L99Q/M102E/N171T/P142E/Q151K/Q38E/Q45L/T27V/V71I/Y165I) (assay: biochemical).
Sequence of NLpoly 11S (Q9GV45 26-184 with the stated changes limits assumed): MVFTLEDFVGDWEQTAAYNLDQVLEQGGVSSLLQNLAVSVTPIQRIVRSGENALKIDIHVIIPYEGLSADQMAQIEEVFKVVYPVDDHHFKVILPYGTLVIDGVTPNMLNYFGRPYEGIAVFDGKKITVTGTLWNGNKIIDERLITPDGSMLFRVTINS
Format: binding
`CC[C@H](C)[C@H](NC(=O)[C@H](CCCCN)NC(=O)[C@H](CCC(=O)O)NC(=O)[C@H](Cc1ccccc1)NC(=O)[C@H](CC(C)C)NC(=O)[C@H](CCCNC(=N)N)NC(=O)[C@H](Cc1ccc(O)cc1)NC(=O)CNC(=O)[C@@H](NC(=O)[C@@H](NC(C)=O)C(C)C)[C@@H](C)O)C(=O)N[C@@H](CO)C(N)=O` [array2.19, VTGYRLFEKIS] was tested, and the Kd was 0.605 µM.
With “Ac-VEGYRLFEEAS-NH2 [array2.80, VEGYRLFEEAS]” the Kd was 1420 µM.
Work on “Ac-VEGYRLFEKAL-NH2 [array2.101, VEGYRLFEKAL]” yielded a Kd of 12.6 µM.
“Ac-VEGYRLFEKAS-NH2 [array2.74, VEGYRLFEKAS]” gave a Kd of 4.14 µM.
Work on “Ac-VEGYRLFEKEL-NH2 [array2.102, VEGYRLFEKEL]” yielded a Kd of 5.79 µM.
“Ac-VEGYRLFEKES-NH2 [array2.75, VEGYRLFEKES]” gave a Kd of 2.97 µM.
“Ac-VEGYRLFEKIL-NH2 [array2.100, VEGYRLFEKIL]” gave a Kd of 10.6 µM.
For “Ac-VEGYRLFEKIS-NH2 [array2.73, VEGYRLFEKIS]”, the Kd was 2.15 µM.
“Ac-VEGYRLFEQAL-NH2 [array2.104, VEGYRLFEQAL]” was tested, and the Kd was 336 µM.
Work on “Ac-VEGYRLFEQAS-NH2 [array2.77, VEGYRLFEQAS]” yielded a Kd of 48.3 µM.
With “Ac-VEGYRLFEQES-NH2 [array2.78, VEGYRLFEQES]” the Kd was 252 µM.
With “Ac-VEGYRLFEQIS-NH2 [array2.76, VEGYRLFEQIS]” the Kd was 52.8 µM.
For “Ac-VEGYRLFKEAL-NH2 [array2.89, VEGYRLFKEAL]”, the Kd was 42.4 µM.
In the case of “Ac-VEGYRLFKEAS-NH2 [array2.62, VEGYRLFKEAS]”, the Kd is reported as 22.1 µM.
“Ac-VEGYRLFKEEL-NH2 [array2.90, VEGYRLFKEEL]” showed a Kd of 101 µM.
With “Ac-VEGYRLFKEES-NH2 [array2.63, VEGYRLFKEES]” the Kd was 220 µM.
In the case of “Ac-VEGYRLFKEIL-NH2 [array2.88, VEGYRLFKEIL]”, the Kd is reported as 17.8 µM.
For “Ac-VEGYRLFKEIS-NH2 [array2.61, VEGYRLFKEIS]”, the Kd was 14.4 µM.
“Ac-VEGYRLFKKAL-NH2 [array2.83, VEGYRLFKKAL]” was tested, and the Kd was 1.59 µM.
Compound “Ac-VEGYRLFKKAS-NH2 [array2.56, VEGYRLFKKAS]” has a Kd of 0.641 µM.
“Ac-VEGYRLFKKEL-NH2 [array2.84, VEGYRLFKKEL]” showed a Kd of 1.41 µM.
In the case of “Ac-VEGYRLFKKES-NH2 [array2.57, VEGYRLFKKES]”, the Kd is reported as 0.891 µM.
For “Ac-VEGYRLFKKIL-NH2 [array2.82, VEGYRLFKKIL]”, the Kd was 0.563 µM.
Compound “Ac-VEGYRLFKKIS-NH2 [array2.55, VEGYRLFKKIS]” has a Kd of 0.078 µM.
Compound “Ac-VEGYRLFKQAL-NH2 [array2.86, VEGYRLFKQAL]” has a Kd of 2.27 µM.
For “Ac-VEGYRLFKQAS-NH2 [array2.59, VEGYRLFKQAS]”, the Kd was 2.09 µM.
Work on “Ac-VEGYRLFKQEL-NH2 [array2.87, VEGYRLFKQEL]” yielded a Kd of 12.6 µM.
With “Ac-VEGYRLFKQIL-NH2 [array2.85, VEGYRLFKQIL]” the Kd was 10.3 µM.
In the case of “Ac-VEGYRLFKQIS-NH2 [array2.58, VEGYRLFKQIS]”, the Kd is reported as 2.09 µM.
With “Ac-VEGYRLFQEAL-NH2 [array2.98, VEGYRLFQEAL]” the Kd was 99.9 µM.
“Ac-VEGYRLFQEAS-NH2 [array2.71, VEGYRLFQEAS]” was tested, and the Kd was 24 µM.
With “Ac-VEGYRLFQEIS-NH2 [array2.70, VEGYRLFQEIS]” the Kd was 230 µM.
Work on “Ac-VEGYRLFQKAL-NH2 [array2.92, VEGYRLFQKAL]” yielded a Kd of 2.02 µM.
Work on “Ac-VEGYRLFQKAS-NH2 [array2.65, VEGYRLFQKAS]” yielded a Kd of 1.93 µM.
With “Ac-VEGYRLFQKEL-NH2 [array2.93, VEGYRLFQKEL]” the Kd was 1.69 µM.
In the case of “Ac-VEGYRLFQKES-NH2 [array2.66, VEGYRLFQKES]”, the Kd is reported as 2.87 µM.
With “Ac-VEGYRLFQKIL-NH2 [array2.91, VEGYRLFQKIL]” the Kd was 2.08 µM.
For “Ac-VEGYRLFQKIS-NH2 [array2.64, VEGYRLFQKIS]”, the Kd was 0.586 µM.
With “Ac-VEGYRLFQQAL-NH2 [array2.95, VEGYRLFQQAL]” the Kd was 18.8 µM.
For “Ac-VEGYRLFQQAS-NH2 [array2.68, VEGYRLFQQAS]”, the Kd was 20 µM.
“Ac-VEGYRLFQQEL-NH2 [array2.96, VEGYRLFQQEL]” was tested, and the Kd was 99.4 µM.
“Ac-VEGYRLFQQIL-NH2 [array2.94, VEGYRLFQQIL]” was tested, and the Kd was 9.39 µM.
“Ac-VEGYRLFQQIS-NH2 [array2.67, VEGYRLFQQIS]” showed a Kd of 8.14 µM.
“Ac-VTGYRLFEEEL-NH2 [array2.54, VTGYRLFEEEL]” showed a Kd of 68.3 µM.
“Ac-VTGYRLFEEIL-NH2 [array2.52, VTGYRLFEEIL]” gave a Kd of 104 µM.
In the case of “Ac-VTGYRLFEKAL-NH2 [array2.47, VTGYRLFEKAL]”, the Kd is reported as 1.81 µM.
“Ac-VTGYRLFEKAS-NH2 [array2.20, VTGYRLFEKAS]” showed a Kd of 1.79 µM.
Work on “Ac-VTGYRLFEKEL-NH2 [array2.48, VTGYRLFEKEL]” yielded a Kd of 2.44 µM.
In the case of “Ac-VTGYRLFEKIL-NH2 [array2.46, VTGYRLFEKIL]”, the Kd is reported as 1.92 µM.
For “Ac-VTGYRLFEQAL-NH2 [array2.50, VTGYRLFEQAL]”, the Kd was 40.4 µM.
With “Ac-VTGYRLFEQAS-NH2 [array2.23, VTGYRLFEQAS]” the Kd was 4.17 µM.
“Ac-VTGYRLFEQEL-NH2 [array2.51, VTGYRLFEQEL]” gave a Kd of 85 µM.
For “Ac-VTGYRLFEQES-NH2 [array2.24, VTGYRLFEQES]”, the Kd was 7.83 µM.
“Ac-VTGYRLFEQIL-NH2 [array2.49, VTGYRLFEQIL]” showed a Kd of 124 µM.
“Ac-VTGYRLFEQIS-NH2 [array2.22, VTGYRLFEQIS]” showed a Kd of 10.8 µM.
“Ac-VTGYRLFKEAL-NH2 [array2.35, VTGYRLFKEAL]” was tested, and the Kd was 5.15 µM.
With “Ac-VTGYRLFKEAS-NH2 [array2.8, VTGYRLFKEAS]” the Kd was 2.57 µM.
Work on “Ac-VTGYRLFKEEL-NH2 [array2.36, VTGYRLFKEEL]” yielded a Kd of 7.78 µM.
Work on “Ac-VTGYRLFKEES-NH2 [array2.9, VTGYRLFKEES]” yielded a Kd of 3.86 µM.
“Ac-VTGYRLFKEIL-NH2 [array2.34, VTGYRLFKEIL]” showed a Kd of 4.41 µM.
In the case of “Ac-VTGYRLFKEIS-NH2 [array2.7, VTGYRLFKEIS]”, the Kd is reported as 4.44 µM.
In the case of “Ac-VTGYRLFKKAL-NH2 [array2.29, VTGYRLFKKAL]”, the Kd is reported as 0.275 µM.
“Ac-VTGYRLFKKAS-NH2 [array2.2, VTGYRLFKKAS]” was tested, and the Kd was 0.241 µM.
“Ac-VTGYRLFKKEL-NH2 [array2.30, VTGYRLFKKEL]” showed a Kd of 0.671 µM.
Work on “Ac-VTGYRLFKKES-NH2 [array2.3, VTGYRLFKKES]” yielded a Kd of 0.773 µM.
“Ac-VTGYRLFKKIL-NH2 [array2.28, VTGYRLFKKIL]” gave a Kd of 0.0766 µM.
Work on “Ac-VTGYRLFKKIS-NH2 [array2.1, VTGYRLFKKIS]” yielded a Kd of 0.0133 µM.
“Ac-VTGYRLFKQAL-NH2 [array2.32, VTGYRLFKQAL]” was tested, and the Kd was 3.56 µM.
“Ac-VTGYRLFKQAS-NH2 [array2.5, VTGYRLFKQAS]” was tested, and the Kd was 1.95 µM.
With “Ac-VTGYRLFKQEL-NH2 [array2.33, VTGYRLFKQEL]” the Kd was 1.95 µM.
Work on “Ac-VTGYRLFKQES-NH2 [array2.6, VTGYRLFKQES]” yielded a Kd of 1.35 µM.
“Ac-VTGYRLFKQIL-NH2 [array2.31, VTGYRLFKQIL]” was tested, and the Kd was 2.99 µM.
In the case of “Ac-VTGYRLFKQIS-NH2 [array2.4, VTGYRLFKQIS]”, the Kd is reported as 0.746 µM.
Compound “Ac-VTGYRLFQEAL-NH2 [array2.44, VTGYRLFQEAL]” has a Kd of 16 µM.
In the case of “Ac-VTGYRLFQEEL-NH2 [array2.45, VTGYRLFQEEL]”, the Kd is reported as 35.4 µM.
With “Ac-VTGYRLFQEES-NH2 [array2.18, VTGYRLFQEES]” the Kd was 67.3 µM.
For “Ac-VTGYRLFQEIL-NH2 [array2.43, VTGYRLFQEIL]”, the Kd was 17.3 µM.
In the case of “Ac-VTGYRLFQEIS-NH2 [array2.16, VTGYRLFQEIS]”, the Kd is reported as 2.56 µM.
Work on “Ac-VTGYRLFQKAL-NH2 [array2.38, VTGYRLFQKAL]” yielded a Kd of 0.975 µM.
“Ac-VTGYRLFQKAS-NH2 [array2.11, VTGYRLFQKAS]” was tested, and the Kd was 0.748 µM.
“Ac-VTGYRLFQKEL-NH2 [array2.39, VTGYRLFQKEL]” was tested, and the Kd was 2.48 µM.
“Ac-VTGYRLFQKES-NH2 [array2.12, VTGYRLFQKES]” gave a Kd of 0.417 µM.
For “Ac-VTGYRLFQKIL-NH2 [array2.37, VTGYRLFQKIL]”, the Kd was 0.362 µM.
With “Ac-VTGYRLFQKIS-NH2 [array2.10, VTGYRLFQKIS]” the Kd was 0.0812 µM.
“Ac-VTGYRLFQQAS-NH2 [array2.14, VTGYRLFQQAS]” showed a Kd of 1.11 µM.
“Ac-VTGYRLFQQEL-NH2 [array2.42, VTGYRLFQQEL]” was tested, and the Kd was 19 µM.
Work on “Ac-VTGYRLFQQES-NH2 [array2.15, VTGYRLFQQES]” yielded a Kd of 7.49 µM.
“Ac-VTGYRLFQQIL-NH2 [array2.40, VTGYRLFQQIL]” was tested, and the Kd was 122 µM.
For “Ac-VTGYRLFQQIS-NH2 [array2.13, VTGYRLFQQIS]”, the Kd was 0.876 µM.
